Ten compounds from ChEMBL document CHEMBL1275474, “In vitro activity of tigecycline against multidrug-resistant Acinetobacter baumannii and selection of tigecycline-amikacin synergy” (2008) can be followed below.

The test system of experiment [1] is Acinetobacter baumannii. Put plainly: Antimicrobial activity against Acinetobacter baumannii isolate 853 by microdilution method. It counts as functional. A general note: In broth dilution the organism is exposed to a series of concentrations in liquid medium.
Experiment [2] relates to Acinetobacter baumannii. Put plainly: Antimicrobial activity against Acinetobacter baumannii isolate 1198 by microdilution method. It counts as functional.
For experiment [3], the system named is Acinetobacter baumannii. Put plainly: Antimicrobial activity against Acinetobacter baumannii isolate 1826 by microdilution method. It counts as functional.
The subject of experiment [4] is Acinetobacter baumannii. Put plainly: Antimicrobial activity against Acinetobacter baumannii by microdilution method. It counts as functional.
Experiment [5] has as its system Acinetobacter baumannii. Put plainly: Antimicrobial activity against Acinetobacter baumannii assessed as susceptible isolates by microdilution method. It counts as functional.
Experiment [6] has as its system Acinetobacter baumannii. Put plainly: Bactericidal activity against Acinetobacter baumannii isolate 1198 at 16 ug/ml after 24 hrs by time kill analysis. In kind it is functional, organism-based.
For experiment [7], the system named is Acinetobacter baumannii. Put plainly: Antimicrobial activity against Acinetobacter baumannii by microdilution method in presence of beta-lactamase inhibitor Sulbactam. In kind it is functional.
Experiment [8] deals with Acinetobacter baumannii. Put plainly: Antimicrobial activity against Acinetobacter baumannii by microdilution method in presence of beta-lactamase inhibitor Tazobactam. It counts as functional.
The test system of experiment [9] is Acinetobacter baumannii. Put plainly: Bactericidal activity against Acinetobacter baumannii isolate 1826 at 8 ug/ml up to 4 hrs by time kill analysis. In kind it is functional, organism-based.
For experiment [10], the system named is Acinetobacter baumannii. Put plainly: Bactericidal activity against Acinetobacter baumannii isolate 1826 at 8 ug/ml after 4 hrs by time kill analysis. In kind it is functional, organism-based.
The subject of experiment [11] is Acinetobacter baumannii. Put plainly: Bactericidal activity against Acinetobacter baumannii isolate 1826 at 2 ug/ml up to 4 hrs by time kill analysis. It counts as functional, organism-based.
In experiment [12] the test system is Acinetobacter baumannii. Put plainly: Bactericidal activity against Acinetobacter baumannii isolate 1826 at 2 ug/ml after 4 hrs by time kill analysis. It counts as functional, organism-based.
In experiment [13] the test system is Acinetobacter baumannii. Put plainly: Bactericidal activity against Acinetobacter baumannii isolate 853 at 0.06 ug/ml at 6 hrs by time kill analysis. It counts as functional, organism-based.
In experiment [14] the test system is Acinetobacter baumannii. Put plainly: Bactericidal activity against Acinetobacter baumannii isolate 1198 at 1 ug/ml after 24 hrs by time kill analysis. It counts as functional, organism-based.
The test system of experiment [15] is Acinetobacter baumannii. Put plainly: Bactericidal activity against Acinetobacter baumannii isolate 1198 at 2 ug/ml after 24 hrs by time kill analysis. It counts as functional, organism-based.
In experiment [16] the test system is Acinetobacter baumannii. Put plainly: Bactericidal activity against Acinetobacter baumannii isolate 853 at 0.5 ug/ml at 6 hrs by time kill analysis. It counts as functional, organism-based.

In brackets after ≈: the same amount, converted by molar mass. Activity calls are given as the source filed them. The calls are words filed in the database; no cut-off is given here.

For the compound `NCC[C@H](O)C(=O)N[C@@H]1C[C@H](N)[C@@H](O[C@H]2O[C@H](CN)[C@@H](O)[C@H](O)[C@H]2O)[C@H](O)[C@H]1O[C@H]1O[C@H](CO)[C@@H](O)[C@H](N)[C@H]1O` [AMIKACIN], the MIC with Acinetobacter baumannii [1] was no more than 0.5 µg/mL; against Acinetobacter baumannii [2], greater than 128 µg/mL; against Acinetobacter baumannii [3], 2 µg/mL (≈ 3.42 µM). The MIC50 with Acinetobacter baumannii [4] came to 8 µg/mL (≈ 13.7 µM). Further, in the experiment on Acinetobacter baumannii [4], the MIC90 is greater than 128 µg/mL. The Activity in the experiment with Acinetobacter baumannii [5] was found to be 53%. Besides, the outcome in the experiment on Acinetobacter baumannii [6] was inactive.
On to `CC1(C)S[C@@H]2[C@H](NC(=O)[C@H](N)c3ccccc3)C(=O)N2[C@H]1C(=O)O` [AMPICILLIN], for which, in the experiment on Acinetobacter baumannii [7], the MIC50 was 16 µg/mL and the MIC90 worked out at 128 µg/mL. Also, the Activity with Acinetobacter baumannii [5] was 31%.
Take `CC(C)(O/N=C(\C(=O)N[C@@H]1C(=O)N2C(C(=O)[O-])=C(C[n+]3ccccc3)CS[C@H]12)c1csc(N)n1)C(=O)O` [CEFTAZIDIME]: in the experiment with Acinetobacter baumannii [4], the MIC50 was 64 µg/mL (≈ 117 µM) and the MIC90 is greater than 64 µg/mL. In addition, in the experiment on Acinetobacter baumannii [5], the Activity was 17%.
In the case of `C[C@@H](O)[C@H]1C(=O)N2C(C(=O)O)=C(SCCNC=N)C[C@H]12` [IMIPENEM ANHYDROUS], in the experiment with Acinetobacter baumannii [4], the MIC50 is 1 µg/mL (≈ 3.34 µM) and the MIC90 worked out at 16 µg/mL (≈ 53.4 µM). In addition, in the experiment on Acinetobacter baumannii [5], the Activity was found to be 86%.
The corresponding values for `C[C@H]1COc2c(N3CCN(C)CC3)c(F)cc3c(=O)c(C(=O)O)cn1c23.C[C@H]1COc2c(N3CCN(C)CC3)c(F)cc3c(=O)c(C(=O)O)cn1c23.O` [LEVOFLOXACIN] are 8 µg/mL, 16 µg/mL and 35%.
In the experiment on Acinetobacter baumannii [4], `CN(C)c1ccc(O)c2c1C[C@H]1C[C@H]3[C@H](N(C)C)C(O)=C(C(N)=O)C(=O)[C@@]3(O)C(O)=C1C2=O` [MINOCYCLINE] displayed an MIC50 of 2 µg/mL (≈ 4.37 µM) and an MIC90 of 8 µg/mL (≈ 17.5 µM). Moreover, in the experiment with Acinetobacter baumannii [5], the Activity is 78%.
As to `CCN1CCN(C(=O)N[C@@H](C(=O)N[C@@H]2C(=O)N3[C@@H]2SC(C)(C)[C@@H]3C(=O)O)c2ccccc2)C(=O)C1=O` [PIPERACILLIN], in the experiment on Acinetobacter baumannii [8], the MIC50 is greater than 128 µg/mL and the MIC90 is greater than 128 µg/mL. Further, the Activity in the experiment on Acinetobacter baumannii [5] is recorded as 9%.
For the compound `CN(C)c1cc(NC(=O)CNC(C)(C)C)c(O)c2c1C[C@H]1C[C@H]3[C@H](N(C)C)C(O)=C(C(N)=O)C(=O)[C@@]3(O)C(O)=C1C2=O` [TIGECYCLINE], the minimal inhibitory concentration (MIC) came out at 0.12 µg/mL (≈ 0.205 µM) in the experiment on Acinetobacter baumannii [1], 4 µg/mL (≈ 6.83 µM) against Acinetobacter baumannii [2], 64 µg/mL (≈ 109 µM) in the experiment with Acinetobacter baumannii [3] and 0.06 µg/mL (≈ 0.102 µM) against Acinetobacter baumannii [4]. The outcome with Acinetobacter baumannii [9] and with Acinetobacter baumannii [11] was Active. In addition, the result in the experiment on Acinetobacter baumannii [10], in the experiment with Acinetobacter baumannii [12], in the experiment on Acinetobacter baumannii [13], in the experiment with Acinetobacter baumannii [14] and in the experiment on Acinetobacter baumannii [15] was inactive.
In the case of GENTAMICIN, in the experiment with Acinetobacter baumannii [4], the MIC50 was greater than 32 µg/mL and the MIC90 is greater than 32 µg/mL. In addition, the Activity with Acinetobacter baumannii [5] came out at 16%.
POLYMYXIN B: the MIC in the experiment with Acinetobacter baumannii [1] is 1 µg/mL; in the experiment on Acinetobacter baumannii [2], 1 µg/mL; with Acinetobacter baumannii [3], 2 µg/mL. Moreover, the MIC50 against Acinetobacter baumannii [4] came to 1 µg/mL. This compound registered an MIC90 in the experiment with Acinetobacter baumannii [4] of 2 µg/mL. For the same compound, in the experiment on Acinetobacter baumannii [5], the Activity worked out at 99%. Moreover, in the experiment on Acinetobacter baumannii [16], the outcome was inactive.

The MIC is the least concentration at which growth counts as inhibited. A higher MIC goes with a need for much substance. For orientation: MIC50 means an inhibitory concentration at the 50% level, which refers to growth in some studies and to a panel of isolates in others. A word on the MIC90: it is the lowest concentration that inhibits either 90% of growth or 90% of the strains tested, depending on the study.
